Measurements published in patent publication US20030039697A1, “Matrices containing nitric oxide donors and reducing agents and their use” (priority 2002, published 2003).

Test system: E. coli
Assay type: cell-based

## N[C@@H](CCC(=O)N[C@@H](CSN=O)C(=O)NCC(=O)O)C(=O)O [GSNO, S-nitroso-L-glutathione]
  growth of bacteria (E. coli) with coated catheter segments: inhibits growth of bacteria
